Assay results as given in patent publication US8354447B2, “mGLU receptors antagonists for treating disorders associated with mGLU receptors including addiction and depression” (The Scripps Research Institute, priority 2002, dated 2013).
Where two headings read alike, the source gives them in different places.

Columns and labels:
[1] = system: male Wistar rats
Excerpt: Animals were trained to respond according to a modification of the discrete-trial current-threshold procedure of Kornetsky and Esposito (Fed Proc 38:2473-2476, 1979), which has been described in detail previously (Markou and Koob, 1992 Physiol Behav 51:111-119). Briefly, a trial was initiated by the delivery of a non-contingent electrical stimulus. […] The current intensity delivered was adjusted for each animal and typically ranged from 50 to 200 μA. […] After a variable inter-trial interval (7.5-12.5 sec, average of 10 sec), another trial was initiated with the delivery of a non-contingent electrical stimulus. […] Responding during the inter-trial interval delayed the onset of the next trial by 12.5 sec. Current levels were varied in alternating descending and ascending series. A set of three trials was presented for each current intensity. Current intensities were altered in 5 μA steps. In each testing session, four alternating descending-ascending series were presented. […] The overall threshold of the session was defined as the mean of the thresholds for the four individual series. Each testing session was ˜30 min in duration. The latency between the onset of the non-contingent stimulus and a positive response was recorded as the response latency. The response latency for each test session was defined as the mean response latency of all trials during which a positive response occurred. After establishment of stable ICSS reward thresholds, rats were tested in the ICSS procedure once daily except for the spontaneous nicotine withdrawal experiment when rats were tested at time-points according to the experimental design.
Systemic administration experiments. These experiments investigated whether nicotine withdrawal, as measured by elevations in ICSS thresholds, could be precipitated in nicotine-treated rats by systemic administration of an agonist at mGluII receptors (LY314582), an agonist at GABAB receptors (CGP44532), or antagonists at mGlu5 (MPEP), NMDA (MK-801) or AMPA/Kainate (NBQX) glutamate receptors. For each drug tested, rats were trained in the ICSS paradigm until stable baseline responding was achieved, defined as ≦10% variation in thresholds for 3 consecutive days and requiring approximately 14 days of daily testing. […] One group was then prepared with subcutaneous osmotic mini-pumps delivering vehicle and the second group with mini-pumps delivering 9 mg/kg/day nicotine hydrogen tartrate (3.16 mg/kg/day nicotine free base). There was a minimum seven-day interval after mini-pump implantation, during which ICSS reward thresholds continued to be measured daily, before the effect of any systemically administered drug on reward thresholds was evaluated.

[2] = system: male Wistar rats; assay: Nicotine self-administration and food-maintained responding on a fixed ratio schedule in rats; format: in vivo, rat
Experimental: Two additional groups of rats were allowed to respond for food (45 mg Noyes food pellet) under a FR5 TO20 sec (n=10), and a FR5 TO210 sec (n=10) schedule. The two different schedules were employed to allow assessment of the effects of MPEP on responding for food under a reinforcement schedule (FR5 TO20 sec) identical to that used for nicotine, and under a reinforcement schedule (FR5 TO210) that equated response rates for food to those seen for nicotine. […] All test sessions were conducted for one hour per day, five days per week.
After acquiring stable nicotine self-administration at either 0.01 mg/kg/infusion (n=9) or 0.03 mg/kg/infusion (n=9), or stable food-maintained responding on the FR5 TO 20 sec schedule (n=10) or the FR5 TO210 sec schedule (n=10), drug testing was initiated. MPEP (0, 1, 3 and 9 mg/kg) was administered intraperitoneally 30 minutes before the session, according to a Latin Square design, with at least six days elapsing between each test dose.

[3] = system: Wistar rats; assay: Cocaine self-administration under a fixed ratio schedule, ShA and LgA rats; format: in vivo, rat
Experimental: Rats (n=14) were food restricted to maintain them at 85% of their normal body weight obtained under free-feeding conditions, then trained to press a lever for 45 mg food pellets on a fixed-ratio 5 (FR5) schedule of reinforcement. […] Thus, a FR5 TO20 sec schedule of reinforcement was used.
The frequency of the stimulation was selected for individual animals so that baseline current-intensity thresholds of each subject were within 50-200 μA, and thus allowed both threshold elevations and lowerings to be detected. The frequency was held constant throughout the experiment. […] Current intensities were altered in 5 μA steps. […] Each testing session was ~30 min in duration. […] From day 10 onwards (the ‘escalation’ period), access to cocaine self-administration was increased from 1 h to 6 h per daily session in one group of rats (Long Access or LgA rats; n=7). Previous studies have shown that this schedule of access to cocaine self-administration results in a progressive increase or ‘escalation’ in daily cocaine consumption (Ahmed and Koob, 1997; Ahmed et al. 2001). In the other group (Short Access or ShA rats; n=7), access to cocaine self-administration was maintained at 1 h per daily session. Previous studies have shown that this schedule of access to cocaine self-administration maintains a stable level of daily cocaine consumption. After 22 days of 1 h (ShA) or 6 h (LgA) daily access to cocaine self-administration, both groups of rats received their first MPEP injection.

[4] = system: Wistar rats; assay: Nicotine self-administration under a fixed ratio schedule (LY341495, LY341495 and MPEP); conditions: MPEP 1 mg/kg alone
[5] = MPEP 0.01 mg/kg i.p., Nicotine-treated rats
[6] = MPEP 0.01 mg/kg i.p., Vehicle-treated rats
[7] = MPEP 0.05 mg/kg i.p., Nicotine-treated rats
[8] = MPEP 0.05 mg/kg i.p., Vehicle-treated rats
[9] = MPEP 0.1 mg/kg i.p., Nicotine-treated rats
[10] = MPEP 0.1 mg/kg i.p., Vehicle-treated rats
[11] = MPEP 0.5 mg/kg i.p., Nicotine-treated rats
[12] = MPEP 0.5 mg/kg i.p., Vehicle-treated rats
[13] = MPEP 1 mg/kg i.p., Nicotine-treated rats
[14] = MPEP 1 mg/kg i.p., Vehicle-treated rats
[15] = MPEP 2 mg/kg i.p., Nicotine-treated rats
[16] = MPEP 2 mg/kg i.p., Vehicle-treated rats
[17] = MPEP 3 mg/kg i.p., Nicotine-treated rats
[18] = MPEP 3 mg/kg i.p., Vehicle-treated rats

## Cc1cccc(C#Cc2ccccc2)n1 [MPEP, 2-methyl-6-(phenylethynyl)-pyridine]
[1]; [5]
  ICSS Thresholds: 93.86 ± 6.0 percentage of baseline
  ICSS response Latencies: 101.50 percentage of baseline
[1]; [6]
  ICSS Thresholds: 98.75 ± 3.5 percentage of baseline
  ICSS response Latencies: 99.75 ± 3.4 percentage of baseline
[1]; [7]
  ICSS Thresholds: 94.11 ± 2.6 percentage of baseline
  ICSS response Latencies: 103.48 percentage of baseline
[1]; [8]
  ICSS Thresholds: 101.27 ± 4.1 percentage of baseline
  ICSS response Latencies: 104.87 ± 3.3 percentage of baseline
[1]; [9]
  ICSS Thresholds: 103.84 ± 1.2 percentage of baseline
  ICSS response Latencies: 102.54 percentage of baseline
[1]; [10]
  ICSS Thresholds: 105.13 ± 3.2 percentage of baseline
  ICSS response Latencies: 105.13 ± 4.8 percentage of baseline
[1]; [11]
  ICSS Thresholds: 104.02 ± 2.2 percentage of baseline
  ICSS response Latencies: 99.47 percentage of baseline
[1]; [12]
  ICSS Thresholds: 103.01 ± 2.7 percentage of baseline
  ICSS response Latencies: 103.20 ± 4.4 percentage of baseline
[1]; [13]
  ICSS Thresholds: 105.81 ± 3.3 percentage of baseline
  ICSS response Latencies: 99.12 percentage of baseline
[1]; [14]
  ICSS Thresholds: 103.70 ± 3.0 percentage of baseline
  ICSS response Latencies: 100.72 ± 2.1 percentage of baseline
[1]; [15]
  ICSS Thresholds: 121.17 ± 6.2 percentage of baseline
  ICSS response Latencies: 101.31 percentage of baseline
[1]; [16]
  ICSS Thresholds: 111.21 ± 2.3 percentage of baseline
  ICSS response Latencies: 107.60 ± 2.6 percentage of baseline
[1]; [17]
  ICSS Thresholds: 119.11 ± 5.5 percentage of baseline
  ICSS response Latencies: 102.22 percentage of baseline
[1]; [18]
  ICSS Thresholds: 111.52 ± 4.8 percentage of baseline
  ICSS response Latencies: 103.58 ± 2.3 percentage of baseline
[1]; MPEP 0.01-0.1 mg/kg, nicotine-treated or control rats
  ICSS reward thresholds: did not affect reward thresholds
[1]; MPEP 0.5-3 mg/kg
  ICSS reward thresholds: elevated reward thresholds in nicotine-treated and control rats
[1]; MPEP 0.5-3 mg/kg, either group
  ICSS response Latencies: had no effect on response latencies
[2]; 1 mg/kg MPEP, 0.01 mg/kg/inf nic, FR5 TO20 sec
  Number of reinforcers earned during the entire 1 hour session: 21 ± 3.1
[2]; 1 mg/kg MPEP, 0.03 mg/kg/inf nic, FR5 TO20 sec
  Number of reinforcers earned during the entire 1 hour session: 13 ± 1.9
[2]; 1 mg/kg MPEP, 45 mg food pellet, FR5 TO20 sec
  Number of reinforcers earned during the entire 1 hour session: 131.3 ± 8.2
[2]; 1 mg/kg MPEP, 45 mg food pellet, FR5 TO210 sec
  Number of reinforcers earned during the entire 1 hour session: 16.3 ± 0.3
[2]; 3 mg/kg MPEP, 0.01 mg/kg/inf nic, FR5 TO20 sec
  Number of reinforcers earned during the entire 1 hour session: 11 ± 2.7
[2]; 3 mg/kg MPEP, 0.03 mg/kg/inf nic, FR5 TO20 sec
  Number of reinforcers earned during the entire 1 hour session: 11.4 ± 1.2
[2]; 3 mg/kg MPEP, 45 mg food pellet, FR5 TO20 sec
  Number of reinforcers earned during the entire 1 hour session: 122.2 ± 7.4
[2]; 3 mg/kg MPEP, 45 mg food pellet, FR5 TO210 sec
  Number of reinforcers earned during the entire 1 hour session: 15.2 ± 0.5
[2]; 9 mg/kg MPEP, 0.01 mg/kg/inf nic, FR5 TO20 sec
  Number of reinforcers earned during the entire 1 hour session: 9.1 ± 3.0
[2]; 9 mg/kg MPEP, 0.03 mg/kg/inf nic, FR5 TO20 sec
  Number of reinforcers earned during the entire 1 hour session: 4.8 ± 1.5
[2]; 9 mg/kg MPEP, 45 mg food pellet, FR5 TO20 sec
  Number of reinforcers earned during the entire 1 hour session: 109 ± 12.98
[2]; 9 mg/kg MPEP, 45 mg food pellet, FR5 TO210 sec
  Number of reinforcers earned during the entire 1 hour session: 15.2 ± 0.6
[2]; 3 and 9 mg/kg MPEP, 0.01 mg/kg/infusion nicotine
  nicotine self-administration: significantly reduced self-administration of the 0.01 mg/kg/infusion nicotine dose relative to the vehicle condition
[2]; MPEP 1, 3, 9 mg/kg, 0.03 mg/kg/inf nicotine
  nicotine self-administration: decreasing self-administration of the 0.03 mg/kg/inf dose only at 9 mg/kg
[2]; MPEP 1-9 mg/kg
  inactive lever presses: no effect of MPEP on inactive lever presses for any of the reinforcers
[3]; 3, 6 and 9 mg/kg MPEP, ShA and LgA rats collapsed
  cocaine responding: significantly decreased cocaine responding in the collapsed group
[3]; 3, 6 and 9 mg/kg MPEP, ShA rats
  cocaine responding: significantly decreased cocaine responding in ShA rats
[3]; MPEP 1-9 mg/kg, FR5 TO20 sec
  cocaine self-administration: decreased cocaine self-administration in ShA and LgA rats
[3]; only the highest dose of MPEP (9 mg/kg), LgA rats
  cocaine responding: significantly decreased cocaine responding in LgA rats
[4]
  cocaine or nicotine self-administration: has no effects on cocaine or nicotine self-administration
